Source: PMC12305296, “Repurposing of FDA‐Approved Drugs to Disrupt Iron Uptake in Mycobacterium abscessus: Targeting Salicylate Synthase as a Novel Approach” (Chemical Biology & Drug Design, 2025)
Converted amounts (≈) assume the structure as drawn.

Molecular target: T1, recombinant Mab‐SaS (Mycobacteroides abscessus, UniProt B1MAQ5)
Experiment: Mab‐SaS enzyme inhibition, direct fluorometric assay
Assay type: biochemical, Mycobacterium abscessus
Conditions: not given
Protocol: The recombinant Mab‐SaS was expressed in E. coli and purified as previously reported (Mori et al. [2023]). Enzyme activity was determined by a direct fluorometric assay (Mori et al. [2020]). Briefly, the assays were performed in 400 μL of 50 mM potassium phosphate pH 8.0, containing 5 mM MgCl2, and 1–2 μM Mab‐SaS. The reaction was started by the addition of CHO and monitored using a PerkinElmer LS3 fluorimeter (Ex. λ = 305 nm, Em. λ = 410 nm; PerkinElmer, Waltham, MA, USA).
The compounds identified by the in silico investigations were purchased from CymitQuimica S.L. and dissolved at a concentration of 20 mM in dimethylsulfoxide (DMSO) or water, according to their solubility. Specifically, gentamycin, cytidine, amifostine, and hydroxystilbamidine were dissolved in water, while esomeprazole, fostamatinib, S‐adenosyl‐L‐homocysteine, norepinephrine, labetalol, levolansoprazole, and nebivolol were dissolved in DMSO.
The inhibitory activity of the candidates was initially evaluated at a final concentration of 100 μM, using a subsaturating concentration of the substrate (CHO) of 70 μM. […] IC50 was calculated by measuring enzymatic activity in the presence of different compound concentrations, using (Equation 1), where A[I] is the enzyme activity at inhibitor concentration [I] and A[0] is the enzyme activity without inhibitor. (1) AI=A0×1−I/I+IC50
The inhibition constant values (K i) were determined by assaying Mab‐SaS at different substrate and compound concentrations and using an adapted equation for competitive inhibition (Equation 2) with GraphPad 8.0 software. (2) v=VmaxS/S+Km1+I/Ki

T1 sequence (B1MAQ5 entry or part of it): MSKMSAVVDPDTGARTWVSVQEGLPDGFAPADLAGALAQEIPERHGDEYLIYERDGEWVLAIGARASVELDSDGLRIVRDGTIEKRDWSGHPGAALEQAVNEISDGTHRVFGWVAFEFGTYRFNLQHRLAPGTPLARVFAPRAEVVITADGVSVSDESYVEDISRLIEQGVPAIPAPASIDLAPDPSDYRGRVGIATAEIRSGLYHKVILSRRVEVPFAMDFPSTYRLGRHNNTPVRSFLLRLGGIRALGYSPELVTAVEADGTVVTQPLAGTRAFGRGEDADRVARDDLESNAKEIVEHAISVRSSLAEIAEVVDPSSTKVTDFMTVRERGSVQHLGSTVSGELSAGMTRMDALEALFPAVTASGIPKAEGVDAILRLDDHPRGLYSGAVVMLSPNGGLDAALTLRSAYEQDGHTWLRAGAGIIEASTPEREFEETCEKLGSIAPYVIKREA

Row | SMILES | IC50 [µM]
1 | COc1ccc2nc([S@@+]([O-])Cc3ncc(C)c(OC)c3C)[nH]c2c1 [Esomeprazole] | 13.6 ± 1.1
2 | COc1cc(Nc2ncc(F)c(Nc3ccc4c(n3)N(COP(=O)(O)O)C(=O)C(C)(C)O4)n2)cc(OC)c1OC [Fostamatinib] | 21 ± 1.3
3 | N=C(N)c1ccc(/C=C/c2ccc(C(=N)N)cc2O)cc1 [Hydroxystilbamidine] | 11.5 ± 1.1

Same assay, conditions: 100 μM compound, 70 μM CHO

Row | SMILES | inhibition of Mab‐SaS at 100 μM
4 | COc1ccc2nc([S@@+]([O-])Cc3ncc(C)c(OC)c3C)[nH]c2c1 [Esomeprazole] | completely blocked the enzymatic activity
5 | COc1cc(Nc2ncc(F)c(Nc3ccc4c(n3)N(COP(=O)(O)O)C(=O)C(C)(C)O4)n2)cc(OC)c1OC [Fostamatinib] | completely blocked the enzymatic activity
6 | CNC(C)C1CCC(N)C(OC2C(N)CC(N)C(OC3OCC(C)(O)C(NC)C3O)C2O)O1 (stereo not shown) [Gentamycin] | did not exhibit any inhibitory effect
7 | N=C(N)c1ccc(/C=C/c2ccc(C(=N)N)cc2O)cc1 [Hydroxystilbamidine] | completely blocked the enzymatic activity

Same assay, conditions: 100 μM compound, 70 μM CHO; Mean ± SD of three experiments

Row | SMILES | residual activity at 100 μM (%)
8 | COc1cc(Nc2ncc(F)c(Nc3ccc4c(n3)N(COP(=O)(O)O)C(=O)C(C)(C)O4)n2)cc(OC)c1OC [Fostamatinib] | 11.6 ± 0.7

Same assay, conditions: Ki, steady‐state kinetics, competitive inhibition equation

Row | SMILES | Ki [µM]
9 | COc1ccc2nc([S@@+]([O-])Cc3ncc(C)c(OC)c3C)[nH]c2c1 [Esomeprazole] | 3.7 ± 0.4
10 | COc1cc(Nc2ncc(F)c(Nc3ccc4c(n3)N(COP(=O)(O)O)C(=O)C(C)(C)O4)n2)cc(OC)c1OC [Fostamatinib] | 11.7 ± 0.7
11 | N=C(N)c1ccc(/C=C/c2ccc(C(=N)N)cc2O)cc1 [Hydroxystilbamidine] | 5.4 ± 0.5

Same assay, conditions: read-out: inhibition of Mab‐SaS at 100 μM

Row | SMILES | inhibition at 100 µM [%]
12 | CC(CCc1ccccc1)NCC(O)c1ccc(O)c(C(N)=O)c1 (stereo not shown) [Labetalol] | ~53
13 | Cc1c(OCC(F)(F)F)ccnc1C[S@+]([O-])c1nc2ccccc2[nH]1 [Levolansoprazole] | ~37
14 | NC[C@H](O)c1ccc(O)c(O)c1 [Norepinephrine] | ~24

Same assay, conditions: read-out: residual activity at 100 μM (%)

Row | SMILES | remaining activity at 100 µM [%]
15 | NCCCNCCSP(=O)(O)O [Amifostine] | 78.1 ± 3.2
16 | Nc1ccn([C@@H]2O[C@H](CO)[C@@H](O)[C@H]2O)c(=O)n1 [Cytidine] | 88.8 ± 2.5
17 | COc1ccc2nc([S@@+]([O-])Cc3ncc(C)c(OC)c3C)[nH]c2c1 [Esomeprazole] | 3.3 ± 1.7
18 | CNC(C)C1CCC(N)C(OC2C(N)CC(N)C(OC3OCC(C)(O)C(NC)C3O)C2O)O1 (stereo not shown) [Gentamycin] | 98.8 ± 5.7
19 | N=C(N)c1ccc(/C=C/c2ccc(C(=N)N)cc2O)cc1 [Hydroxystilbamidine] | 0.5 ± 0.3
20 | CC(CCc1ccccc1)NCC(O)c1ccc(O)c(C(N)=O)c1 (stereo not shown) [Labetalol] | 47 ± 2.1
21 | Cc1c(OCC(F)(F)F)ccnc1C[S@+]([O-])c1nc2ccccc2[nH]1 [Levolansoprazole] | 62.8 ± 1.7
22 | OC(CNCC(O)C1CCc2cc(F)ccc2O1)C1CCc2cc(F)ccc2O1 (stereo not shown) [Nebivolol] | 82.3 ± 1.3
23 | NC[C@H](O)c1ccc(O)c(O)c1 [Norepinephrine] | 75.5 ± 1.4
24 | Nc1ncnc2c1ncn2[C@@H]1O[C@H](CSCC[C@H](N)C(=O)O)[C@@H](O)[C@H]1O [S‐adenosyl‐L‐homocysteine] | 102 ± 3.8

Same assay, conditions: reciprocal plots of steady‐state kinetics

Row | SMILES | mode of inhibition towards CHO
25 | COc1ccc2nc([S@@+]([O-])Cc3ncc(C)c(OC)c3C)[nH]c2c1 [Esomeprazole] | competitive
26 | COc1cc(Nc2ncc(F)c(Nc3ccc4c(n3)N(COP(=O)(O)O)C(=O)C(C)(C)O4)n2)cc(OC)c1OC [Fostamatinib] | competitive
27 | N=C(N)c1ccc(/C=C/c2ccc(C(=N)N)cc2O)cc1 [Hydroxystilbamidine] | competitive

Test system: M. smegmatis mc^2155
Experiment: REMA antimycobacterial assay in iron‐limiting chelated Sauton's medium
Assay type: cell-based
Conditions: Mycolicibacterium smegmatis, iron‐limiting conditions
Protocol: Antimycobacterial activity of the best compounds was evaluated by REMA assay in iron‐limiting chelated Sauton's medium on M. smegmatis MC^2 155 (Siegrist et al. [2009]; Mehra and Philips [2014]). This microorganism is widely used as a non‐pathogenic model for Mab, since it shares similar biological characteristics and replicates more rapidly than other mycobacteria. By using this non‐pathogenic microorganism, we could efficiently study processes related to Mab, while minimizing the hazards and technical difficulties of working directly with a pathogenic strain.

Row | SMILES | MIC [µM]
28 | N=C(N)c1ccc(/C=C/c2ccc(C(=N)N)cc2O)cc1 [Hydroxystilbamidine] | 250 (≈ 70.1 µg/mL)

Molecular target: T1, recombinant Mab‐SaS
Experiment: PAINS control assays (BSA, Triton X‐100, DTT) on Mab‐SaS inhibition
Assay type: biochemical, Mycobacterium abscessus
Conditions: 0.1 mg/mL BSA or 0.01% (v/v) Triton X‐100

Row | SMILES | inhibition in presence of BSA and Triton X‐100 (aggregation check)
29 | COc1ccc2nc([S@@+]([O-])Cc3ncc(C)c(OC)c3C)[nH]c2c1 [Esomeprazole] | inhibited the enzyme
30 | COc1cc(Nc2ncc(F)c(Nc3ccc4c(n3)N(COP(=O)(O)O)C(=O)C(C)(C)O4)n2)cc(OC)c1OC [Fostamatinib] | inhibited the enzyme
31 | N=C(N)c1ccc(/C=C/c2ccc(C(=N)N)cc2O)cc1 [Hydroxystilbamidine] | inhibited the enzyme

Same assay, conditions: 100 mM DTT

Row | SMILES | effect of DTT on inhibition (cysteine reactivity check)
32 | COc1ccc2nc([S@@+]([O-])Cc3ncc(C)c(OC)c3C)[nH]c2c1 [Esomeprazole] | no impact on the inhibition
33 | COc1cc(Nc2ncc(F)c(Nc3ccc4c(n3)N(COP(=O)(O)O)C(=O)C(C)(C)O4)n2)cc(OC)c1OC [Fostamatinib] | no impact on the inhibition
34 | N=C(N)c1ccc(/C=C/c2ccc(C(=N)N)cc2O)cc1 [Hydroxystilbamidine] | no impact on the inhibition
